In US10131639B2, “Formulations of 2-(tert-butylamino)-4-((1R,3R,4R)-3-hydroxy-4methylcyclohexylamino)-pyrimidine-5-carboxamide” (Signal Pharmaceuticals, LLC, priority 2014, dated 2018):

Experiments:
[1] = Solubility in water and SGF (24 hours, ambient temperature, HPLC/UV); assay type: physicochemical; settings: for pH of the solubility sample in SGF / pH of the solubility sample in water: measured after 24 hours shaking; for Solubility in SGF (equiv. to free base): simulated gastric fluid without pepsin; for Solubility in SGF (equiv. to free base) / Solubility in water (equiv. to free base): ambient temperature, 24 hours
Protocol: Solubility in Water and SGF: A portion of the sample was weighed into a 2 mL clear HPLC vial. […] The sample was removed from the shaker and pH measurement was performed using a calibrated pH meter. Then a portion of the sample was filtered using […] Nylon-membraned centrifuge tube filter at 14000 RPM for 5 min. The filtrate was analyzed using HPLC/UV with appropriate dilution. The filtered solid residues were analyzed using XRPD.
For solubility in SGF, the samples were prepared and assayed in the same procedures as mentioned above.

[2] = Hygroscopicity by dynamic vapor sorption (DVS); assay type: physicochemical; settings: for Hygroscopicity (80% RH, 25° C., cycle 1 sorption): DVS water uptake, L-tartrate: hydrate, difference between 20% RH and 80% RH
Source text: DVS: A portion of the sample was loaded into a quartz sample holder and tested using DVS-Advantage system in two continuous adsorption/desorption cycles. The settings are described as follows:
Adsorption/desorption cycle 1: 50 to 95 to 0% RH;
Adsorption/desorption cycle 2: 0 to 95 to 0% RH;

[3] = Solid state physical stability under stress conditions (XRPD); assay type: physicochemical; settings: XRPD vs initial material
Protocol: A portion of the sample was loaded to a 4 mL clear glass vial. Four samples were prepared for each salt. The vials (open) were stored under 4 different stress conditions, respectively.

[4] = Solid state chemical stability under stress conditions (HPLC with UV detection); settings: for Chemical stability (open vial, 2 weeks) / Chemical stability (open vial, 2 weeks): degradation: HPLC/UV; for % Remaining at 80° C. / % Remaining at 80° C./75% RH: solid state, open vial, 2 weeks, HPLC with UV detection
Protocol: Six vials were prepared for each salt. Two samples were stored in the refrigerator. The other four samples in open vials were stored under 4 stress conditions, respectively. […] One set of samples stored in the refrigerator were used to prepare the stock and standard solutions.

[5] = Hygroscopicity by dynamic vapor sorption (DVS); assay type: physicochemical; settings: 25° C., after pre-heating at 50° C. for 3 hours
[6] = 80° C./75% RH, listed as H2SO4 salt

CC1CCC(Nc2nc(NC(C)(C)C)ncc2C(N)=O)CC1O.Cl (stereo not shown) [HCl]
pH of the solubility sample in SGF [1]: (pH 1.19)
pH of the solubility sample in water [1]: (pH 3.87)
Solubility in SGF (equiv. to free base) [1]: 6058 µg/mL
Solubility in water (equiv. to free base) [1]: 10761 µg/mL
Hygroscopicity (80% RH, 25° C., cycle 1 sorption) [2]: 5.21%
hygroscopicity (sorption/desorption, in words) ([2]; DVS, 25° C.): hygroscopic
water uptake at 40% RH, Cycle 2 sorption isotherm ([2]; DVS, 25° C.): 4.89%
Physical stability (open vial, 2 weeks) ([3]; 80° C./75% RH): form change
Physical stability (open vial, 2 weeks) ([3]; 80° C./75% RH, listed as HCl salt): not stable
Physical stability (open vial, 2 weeks) ([3]; 80° C.): no change
Physical stability (open vial, 2 weeks) ([3]; 80° C., listed as HCl salt): physically stable
Chemical stability (open vial, 2 weeks) ([4]; 80° C./75% RH): no change
Chemical stability (open vial, 2 weeks) ([4]; 80° C.): no change
% Remaining at 80° C. ([4]; 80° C.): 101.2%
% Remaining at 80° C./75% RH ([4]; 80° C./75% RH): 100.4%

CC(O)C(=O)O.CC1CCC(Nc2nc(NC(C)(C)C)ncc2C(N)=O)CC1O [L-lactate]
Hygroscopicity (80% RH, 25° C., cycle 1 sorption) [2]: 2.65%
hygroscopicity (sorption/desorption, in words) ([2]; DVS, 25° C.): moderately hygroscopic
Physical stability (open vial, 2 weeks) ([3]; 80° C./75% RH): form change
Physical stability (open vial, 2 weeks) ([3]; 80° C./75% RH, listed as L-lactate salt form 2): not physically stable
Physical stability (open vial, 2 weeks) ([3]; 80° C.): form change
Physical stability (open vial, 2 weeks) ([3]; 80° C., listed as L-lactate salt form 2): not physically stable
Chemical stability (open vial, 2 weeks) ([4]; 80° C./75% RH): no change
Chemical stability (open vial, 2 weeks) ([4]; 80° C.): no change
% Remaining at 80° C. ([4]; 80° C.): 100.4%
% Remaining at 80° C./75% RH ([4]; 80° C./75% RH): 100.5%

O=C(O)[C@H](O)[C@@H](O)C(=O)O [L-tartrate]
Hygroscopicity (80% RH, 25° C., cycle 1 sorption) [2]: 0.81%
hygroscopicity (sorption/desorption, in words) ([2]; DVS, 25° C., listed as L-tartrate salt): slightly hygroscopic
hygroscopicity (sorption/desorption, in words) ([2]; DVS, 25° C., listed as L-tartrate salt (hydrate)): not hygroscopic
Physical stability (open vial, 2 weeks) ([3]; 80° C./75% RH): no change
Physical stability (open vial, 2 weeks) ([3]; 80° C./75% RH, listed as L-tartrate salt): physically stable
Physical stability (open vial, 2 weeks) ([3]; 80° C.): no change
Physical stability (open vial, 2 weeks) ([3]; 80° C., listed as L-tartrate salt): physically stable
Cycle 1 sorption at 20% RH [5]: 4.32%
Chemical stability (open vial, 2 weeks) ([4]; 80° C./75% RH): no change
Chemical stability (open vial, 2 weeks) ([4]; 80° C.): no change
% Remaining at 80° C. ([4]; 80° C.): 98.7%
% Remaining at 80° C./75% RH ([4]; 80° C./75% RH): 98.3%

C[C@@H]1CC[C@@H](Nc2nc(NC(C)(C)C)ncc2C(N)=O)C[C@H]1O.O=P(O)(O)O [Compound H3PO4]
Hygroscopicity (80% RH, 25° C., cycle 1 sorption) [2]: 0.48%
hygroscopicity (sorption/desorption, in words) ([2]; DVS, 25° C.): not hygroscopic
Physical stability (open vial, 2 weeks) ([3]; 80° C./75% RH): no change
Physical stability (open vial, 2 weeks) ([3]; 80° C./75% RH, listed as H3PO4 salt): physically stable
Physical stability (open vial, 2 weeks) ([3]; 80° C.): no change
Physical stability (open vial, 2 weeks) ([3]; 80° C., listed as H3PO4 salt): physically stable
Chemical stability (open vial, 2 weeks) ([4]; 80° C./75% RH): no change
Chemical stability (open vial, 2 weeks) ([4]; 80° C.): no change
% Remaining at 80° C. ([4]; 80° C.): 101.1%
% Remaining at 80° C./75% RH ([4]; 80° C./75% RH): 99.9%

C[C@@H]1CC[C@@H](Nc2nc(NC(C)(C)C)ncc2C(N)=O)C[C@H]1O.O=C(O)C[C@H](O)C(=O)O [L-malate]
pH of the solubility sample in SGF [1]: (pH 1.54)
pH of the solubility sample in water [1]: (pH 4.07)
Solubility in SGF (equiv. to free base) [1]: 8922 µg/mL
Solubility in water (equiv. to free base) [1]: 4496 µg/mL
Hygroscopicity (80% RH, 25° C., cycle 1 sorption) [2]: 5.60%
hygroscopicity (sorption/desorption, in words) ([2]; DVS, 25° C.): hygroscopic
Physical stability (open vial, 2 weeks) ([3]; 80° C./75% RH): form change
Physical stability (open vial, 2 weeks) ([3]; 80° C./75% RH, listed as L-malate salt): not physically stable
Physical stability (open vial, 2 weeks) ([3]; 80° C.): form change
Physical stability (open vial, 2 weeks) ([3]; 80° C., listed as L-malate salt): not physically stable
Chemical stability (open vial, 2 weeks) ([4]; 80° C./75% RH): not chemically stable
Chemical stability (open vial, 2 weeks): degradation ([4]; 80° C./75% RH): ~7% degradation
Chemical stability (open vial, 2 weeks) ([4]; 80° C.): not chemically stable
Chemical stability (open vial, 2 weeks): degradation ([4]; 80° C.): ~12% degradation
% Remaining at 80° C. ([4]; 80° C.): 87.7%
% Remaining at 80° C./75% RH ([4]; 80° C./75% RH): 92.9%

C[C@@H]1CC[C@@H](Nc2nc(NC(C)(C)C)ncc2C(N)=O)C[C@H]1O.O=S(=O)(O)O [Compound H2SO4]
pH of the solubility sample in SGF [1]: (pH 1.03)
pH of the solubility sample in water [1]: (pH 1.69)
Solubility in SGF (equiv. to free base) [1]: 3187 µg/mL
Solubility in water (equiv. to free base) [1]: 2647 µg/mL
Hygroscopicity (80% RH, 25° C., cycle 1 sorption) [2]: 6.13%
hygroscopicity (sorption/desorption, in words) ([2]; DVS, 25° C.): hygroscopic
Physical stability (open vial, 2 weeks) ([3]; 80° C./75% RH): form change
Physical stability (open vial, 2 weeks) [3, 6]: not stable
Physical stability (open vial, 2 weeks) ([3]; 80° C.): no change
Physical stability (open vial, 2 weeks) ([3]; 80° C., listed as H2SO4 salt): physically stable
Chemical stability (open vial, 2 weeks) ([4]; 80° C./75% RH): no change
Chemical stability (open vial, 2 weeks) [4, 6]: stable
Chemical stability (open vial, 2 weeks) ([4]; 80° C.): no change
Chemical stability (open vial, 2 weeks) ([4]; 80° C., listed as H2SO4 salt): stable
% Remaining at 80° C. ([4]; 80° C.): 100.0%
% Remaining at 80° C./75% RH ([4]; 80° C./75% RH): 100.1%
